Measured values reported in US20250144179A1, “PEPTIDE HORMONE TO PREVENT OR TREAT VASOSPASM, BRAIN INJURY OR CEREBRAL EDEMA” (UNIVERSITY OF FLORIDA RESEARCH FOUNDATION, INCORPORATED, priority 2022, published 2025).

How the values were obtained:
Format in all cases: in vivo, mouse
[1] = system: murine intracranial aneurysm rupture model; experiment: Intracranial aneurysm rupture model; settings: 450 nmol/kg every other day from 3 days before aneurysm induction, vs vehicle
Procedure: (§1) Synthetic adropin^34-76 peptide was supplied from Bachem (Bubendorf, Switzerland) and diluted in 0.1% BSA in saline. 0.1% BSA in saline was used as vehicle control for all experiments. Adropin (450 nmol/kg) or an equivalent volume of vehicle was delivered via intraperitoneal injection 15 minutes post-SAH. For experiments ending at 24 hours post-SAH, an identical dose of adropin/vehicle was given again 12 hours later. For experiments ending 7 days post-SAH, adropin/vehicle was given again on days 1, 3 & 5 post-SAH. In the aneurysm rupture model, adropin was given at a dose of 450 nmol/kg starting 3 days before aneurysm induction (elastase injection). Adropin was given every other day until sacrifice
Cerebral aneurysms were induced as previously described. Briefly, mice were anesthetized with ketamine (100 mg/kg) and xylazine (10 mg/kg) before the left common carotid artery and the right renal artery were ligated with 7-0 silk suture (Ethicon Inc., Somerville, New Jersey). Carotid and renal artery ligations are hereafter referred to as ligations. One week after ligations, mice were anesthetized and 10 μL of 1.0 U/mL porcine pancreatic elastase solution (Worthington Biochemical Corp, Lakewood, New Jersey) diluted in phosphate buffered saline (PBS, Invitrogen, Carlsbad, California) was stereotactically injected into the right basal cistern at 1.2 mm rostral of bregma, 0.7 mm lateral of midline, and 5.3 mm deep to the surface of the brain. A subcutaneous osmotic pump (Alzet, Cupertino, California) placed in the right flank immediately after elastase injection and continually infused angiotensin II (Bachem, Torrence, California) at a dose of 1000 ng/kg/min. Elastase injection and osmotic pump placement are hereafter referred to as aneurysm induction. Following recovery from aneurysm induction, mice were fed a diet of 8% NaCl with 0.12% beta-aminopropionitrile (BAPN; Harlan Laboratories, Indianapolis, Indiana).
Three weeks post-aneurysm induction, mice were deeply anesthetized with ketamine/xylazine. A bilateral anterolateral thoracotomy with transverse sternotomy was made to expose the heart and great vessels. The right atrium was punctured with the tip of a 23 g needle as an outlet before the left ventricle was sequentially perfused with normal saline, 4% paraformaldehyde (PFA), and Coomassie Brilliant Blue dye in a 20% gelatin solution. Brains were carefully removed from the skull and inspected under a dissection microscope for the presence of aneurysms as evidenced by outpouching of cerebral arteries in or connected to the circle of Willis. Aneurysm rupture was identified by the presence of extravasated blood near an identified aneurysm. […]

[2] = system: wild-type mice, SAH model; experiment: TUNEL/NeuN staining for neuronal apoptosis after SAH; settings: seven days post-SAH
Procedure: as §1
SAH was modeled using the anterior circulation single autologous blood injection method^25,33 with minor adjustments. […]
Following perfusion-fixation and overnight post-fixation in 4% PFA, brain samples were embedded in paraffin wax and cut into […] sections with a Leica RM2125 RTS microtome (Leica Microsystems, Buffalo Grove, New York) and adhered to poly-L-lysine-coated glass slides. […] Primary antibodies were detected using donkey anti-rabbit IgG AlexaFluor594, donkey anti-rabbit IgG AlexaFluor488, donkey anti-rat IgG AlexaFluor594, or donkey anti-goat IgG AlexaFluor488 (all from ThermoFisher, Waltham, Massachusetts). […] All images were analyzed by two blinded observers.

eNOS^−/− mice, SAH model = experiment: Sensorimotor deficits (corner test) after SAH in eNOS knockout mice
Text: All animal experiments were approved by IACUC (Institutional Animal Care and Use Committee) and performed in accordance with ARRIVE (Animal Research: Reporting of In Vivo Experiments) guidelines. All animals were 12-15-week-old females and were housed in pathogen-free housing with ad libitum food and water and 12-h light/dark cycling. Wild-type C57B1/6 mice were received from Charles River Labs (Wilmington, Mass.) and eNOS knockout mice were obtained from The Jackson Laboratory (Bar Harbor, Maine). eNOS knockout breeding pairs were genotyped prior to breeding and F1 progeny used for all experiments. The following primers were used for genotyping: eNOS knockout (Nos3^−/−): F-5′-[…]-3′, R-5′-[…]-3′. All animals underwent twice daily monitoring from institutional animal care services staff and/or investigators. Mice were randomized to treatment groups prior to surgical procedures.
as §1, with “In the aneurysm rupture model, adropin was given at a dose of 450 nmol/kg starting 3 days before aneurysm induction (elastase injection). Adropin was given every other day until sacrifice” left out

Substance: adropin (CHSRSADVDSLSESSPNSSPGPCPEKAPPPQKPSHEGSYLLQP) [Synthetic adropin^34-76 peptide from Bachem]
- aneurysm formation [1]: did not significantly reduce aneurysm formation
- aneurysm rupture [1]: did not significantly reduce aneurysm formation (FIG. 9C) or aneurysm rupture
- deficit-free (symptom-free) survival [1]: extended deficit-free survival compared to vehicle
- proportion of aneurysm ruptures that were symptom-producing [1]: less likely to be symptom-producing
- NeuN+/TUNEL+ cells (neuronal apoptosis) [2]: did not have as many TUNEL^+ neurons
- sensorimotor deficits (corner test turn preference) (eNOS^−/− mice, SAH model): adropin also had no effect on sensorimotor deficits
